Bounds are passed on as bounds.

The assay concerns the target T1, NPY Y2 receptor (Homo sapiens, UniProt P49146).
T1 construct: endogenous in cells; host or cells: KAN-Ts cells (membrane preparation)
T1 sequence (P49146 1-381): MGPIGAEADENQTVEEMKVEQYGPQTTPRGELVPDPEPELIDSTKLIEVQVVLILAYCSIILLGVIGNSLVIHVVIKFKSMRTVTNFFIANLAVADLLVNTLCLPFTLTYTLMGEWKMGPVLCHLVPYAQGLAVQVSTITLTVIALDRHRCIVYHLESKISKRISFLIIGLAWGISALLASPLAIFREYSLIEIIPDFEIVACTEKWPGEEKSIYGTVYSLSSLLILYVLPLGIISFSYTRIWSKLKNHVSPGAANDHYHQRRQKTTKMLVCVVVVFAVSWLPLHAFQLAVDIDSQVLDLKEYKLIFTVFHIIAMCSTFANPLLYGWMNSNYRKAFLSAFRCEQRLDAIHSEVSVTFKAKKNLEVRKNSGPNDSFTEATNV
In words: Neuropeptide Y2 radioligand binding assay ([125I]PYY, KAN-Ts cell membranes). The note with it: membranes of KAN-Ts cells endogenously expressing Y2 receptors; [125I]PYY 80 pM; 1 h at rt; read-out: IC50 (μM), NPY Y2 binding. The protocol: KAN-Ts endogenously expressing Y2 receptors were used for the radioligand binding assay. Cells were grown to confluence on 150 cm^2 tissue culture plates, washed with phosphate-buffered saline (PBS), and scraped into 50 mL tubes. After centrifugation, the supernatant was aspirated, and the pellets frozen and stored at −80° C. Thawed pellets were homogenized with a polytron tissue grinder for 15 sec in 20 mM Tris-HCl, 5 mM EDTA. The homogenate was centrifuged at 800×g for 5 min and the collected supernatant was recentrifuged at 25000×g for 25 min. The resulting pellet was resuspended in binding buffer (20 mM HEPES, 120 mM NaCl, 0.22 mM KH2PO4, 1.3 mM CaCl2, 0.8 mM MgSO4). Membranes were incubated with [^125I]PYY (80 pM) in the presence or absence of test compound for 1 h at rt. The reaction was stopped by filtration through GF/C filter plates pre-soaked in 0.3% polyethylenimine and subsequently washed with Tris 50 mM, 5 mM EDTA buffer. Plates were dried for 1 h in a 55° C. oven, scintillation fluid was added and the radioactivity was counted in a Packard TopCount. Specific binding to the NPY receptor subtypes was determined by radioactivity that was bound in the presence of […] NPY. Each binding experiment was repeated three to eight times, each in duplicate. IC50 values (i.e. concentration of unlabelled peptide or antagonist required to compete for 50% of specific binding to the radioligand) were determined using the GraphPad Prism software (GraphPad Software Inc., San Diego Calif.) with a fit to a sigmoidal dose response curve. Apparent K values were as K=IC50/(1+C/KD), where C is concentration of the radioligand.
A word on the IC50: it is the point on the concentration scale where inhibition reaches its midpoint. With `CCN(CC)C(=O)C(c1ccccc1)N1CCN(c2ccc(-c3noc(C4CC4)n3)cc2F)CC1` (stereo not drawn) [Compound 88, 2-{4-[4-(5-Cyclopropyl-[1,2,4]oxadiazol-3-yl)-2-fluoro-phenyl}-piperazin-1-yl]-N,N-diethyl-2-phenyl-acetamide], the IC50 turned out to be 0.27 µM.

As for `CCN(CC)C(=O)C(c1ccccc1)N1CCN(c2ccc(-c3noc(=O)n3C)cc2F)CC1` (stereo not drawn) [Compound 176, N,N-Diethyl-2-{4-[2-fluoro-4-(4-methyl-5-oxo-4,5-dihydro-[1,2,4]oxadiazol-3-yl)-phenyl]-piperazin-1-yl}-2-phenyl-acetamide], the IC50 worked out at 1.9 µM.

For the compound `CCN(CC)C(=O)C(c1ccccc1)N1CCN(c2ccc(-c3ccc(F)cc3)cc2F)CC1` (stereo not drawn) [Compound 207, 2-[4-(3,4′-Difluoro-biphenyl-4-yl)-piperazin-1-yl]-N,N-diethyl-2-phenyl-acetamide], the IC50 came to 1.1 µM.

Turning to `CCN(CC)C(=O)C(c1ccccc1)N1CCN(c2ccc(-c3nc(C(C)C)no3)cc2C=O)CC1` (stereo not drawn) [Compound 256, N,N-Diethyl-2-{4-[2-formyl-4-(3-isopropyl-[1,2,4]oxadiazol-5-yl)-phenyl]-piperazin-1-yl}-2-phenyl-acetamide], the IC50 is 0.17 µM.

As to `CCc1nnc(-c2ccc(N3CCN(C(C(=O)N(CC)CC)c4ccccc4)CC3)c(F)c2)o1` (stereo not drawn) [Compound 152, N,N-Diethyl-2-{4-[4-(5-ethyl-[1,3,4]oxadiazol-2-yl)-2-fluoro-phenyl]-piperazin-1-yl}-2-phenyl-acetamide], the IC50 is 0.3 µM.

As to `CCN(CC)C(=O)C(c1ccccc1)N1CCN(c2ccc(-c3cccc(C)c3)cc2F)CC1` (stereo not drawn) [Compound 206], the IC50 was 0.48 µM.

In the case of `CCN(CC)C(=O)C(c1ccccc1)N1CCN(c2ccc(-c3ncon3)cc2F)CC1` (stereo not drawn) [Compound 158, N,N-Diethyl-2-[4-(2-fluoro-4-[1,2,4]oxadiazol-3-yl-phenyl)-piperazin-1-yl]-2-phenyl-acetamide], the IC50 was 1.5 µM.

Take `CCN(CC)C(=O)C(c1ccccc1)N1CCN(c2ccc(-c3cc(C)nn3-c3ccccc3)cc2F)CC1` (stereo not drawn) [Compound 186, N,N-Diethyl-2-{4-[2-fluoro-4-(5-methyl-2-phenyl-2H-pyrazol-3-yl)-phenyl]-piperazin-1-yl}-2-phenyl-acetamide]: the IC50 is 0.11 µM.

Consider `CCN(CC)C(=O)C(c1ccccc1)N1CCN(c2ccc(-c3nc(C(C)C)no3)cc2CO)CC1` (stereo not drawn) [Compound 257, N,N-Diethyl-2-{4-[2-hydroxymethyl-4-(3-isopropyl-[1,2,4]oxadiazol-5-yl)-phenyl]-piperazin-1-yl}-2-phenyl-acetamide], for which the IC50 was determined as 0.34 µM.

For the compound `CCN(CC)C(=O)C(c1cccc(F)c1)N1CCN(c2ccc(-c3nc(C)no3)cc2F)CC1` (stereo not drawn) [Compound 211, N,N-Diethyl-2-{4-[2-fluoro-4-(3-methyl-[1,2,4]oxadiazol-5-yl)-phenyl]-piperazin-1-yl}-2-(3-fluoro-phenyl)-acetamide], the half-inhibitory concentration (IC50) is 0.083 µM.

With `CCC(CC)c1nc(-c2ccc(N3CCN(C(C(=O)N(CC)CC)c4ccccc4)CC3)c(F)c2)no1` (stereo not drawn) [Compound 70, N,N-Diethyl-2-(4-{4-[5-(1-ethyl-propyl)-[1,2,4]oxadiazol-3-yl]-2-fluoro-phenyl}-piperazin-1-yl)-2-phenyl-acetamide], the IC50 came to 0.48 µM.

As for `CCN(CC)C(=O)C(c1ccccc1)N1CCN(c2ccc(-c3cccc(Cl)c3)cc2F)CC1` (stereo not drawn) [Compound 194, 2-[4-(3′-Chloro-3-fluoro-biphenyl-4-yl)-piperazin-1-yl]-N,N-diethyl-2-phenyl-acetamide], the IC50 turned out to be 0.88 µM.

Turning to `CCN(CC)C(=O)C(c1ccccc1)N1CCN(c2ccc(-c3ccccc3OC)cc2C#N)CC1` (stereo not drawn) [Compound 255, 2-[4-(3-Cyano-2′-methoxy-biphenyl-4-yl)-piperazin-1-yl]-N,N-diethyl-2-phenyl-acetamide], the IC50 is 0.03 µM.

As for `CCN(CC)C(=O)C(c1ccccc1)N1CCN(c2ccc(-c3noc(C(F)(F)F)n3)cc2F)CC1` (stereo not drawn) [Compound 118, N,N-Diethyl-2-{4-[2-fluoro-4-(5-trifluoromethyl-[1,2,4]oxadiazol-3-yl)-phenyl]-piperazin-1-yl}-2-phenyl-acetamide], the IC50 came to 0.18 µM.

On to `CCOC(=O)c1nc(-c2ccc(N3CCN(C(C(=O)N(CC)CC)c4ccccc4)CC3)c(F)c2)no1` (stereo not drawn) [Compound 130, 3-{4-[4-(Diethylcarbamoyl-phenyl-methyl)-piperazin-1-yl]-3-fluoro-phenyl}-[1,2,4]oxadiazole-5-carboxylic acid ethyl ester], for which the IC50 is above 10 µM.

Consider `CCN(CC)C(=O)C(c1ccccc1)N1CCN(c2ccc(-c3cccn3C(=O)OC(C)(C)C)cc2F)CC1` (stereo not drawn) [Compound 187, 2-{4-[4-(Diethylcarbamoyl-phenyl-methyl)-piperazin-1-yl]-3-fluoro-phenyl}-pyrrole-1-carboxylic acid tert-butyl ester], for which the IC50 is 5 µM.

`CCc1noc(-c2ccc(N3CCN(C(C(=O)N(C)CC)c4ccccc4)CC3)c(F)c2)n1` (stereo not drawn) [Compound 197, N-Ethyl-2-{4-[4-(3-ethyl-[1,2,4]oxadiazol-5-yl)-2-fluoro-phenyl]-piperazin-1-yl}-N-methyl-2-phenyl-acetamide]: the IC50 stood at 0.075 µM.

As for `CCN(CC)C(=O)C(c1ccccc1)N1CCN(c2ccc(-c3nnc(C(C)C)o3)cc2F)CC1` (stereo not drawn) [Compound 154, N,N-Diethyl-2-{4-[2-fluoro-4-(5-isopropyl-[1,3,4]oxadiazol-2-yl)-phenyl]-piperazin-1-yl}-2-phenyl-acetamide], the IC50 stood at 0.22 µM.

For `CC(C)c1noc(-c2ccc(N3CCN(C(C(=O)N(C)C)c4ccccc4)CC3)c(F)c2)n1` (stereo not drawn) [Compound 180, 2-{4-[2-Fluoro-4-(3-isopropyl-[1,2,4]oxadiazol-5-yl)-phenyl]-piperazin-1-yl}-N,N-dimethyl-2-phenyl-acetamide], the IC50 was 0.15 µM.

Take `CCc1noc(-c2ccc(N3CCN(C(C(=O)N(CC)CC)c4ccccc4)CC3)c(F)c2)n1` (stereo not drawn) [Compound 71, N,N-Diethyl-2-{4-[4-(3-ethyl-[1,2,4]oxadiazol-5-yl)-2-fluoro-phenyl]-piperazin-1-yl}-2-phenyl-acetamide]: the IC50 came out at 0.097 µM.

As to `CC[C@H](C)c1nc(-c2ccc(N3CCN(C(C(=O)N(CC)CC)c4ccccc4)CC3)c(F)c2)no1` (stereo in doubt) [Compound 97, 2-{4-[4-(5-sec-Butyl-[1,2,4]oxadiazol-3-yl)-2-fluoro-phenyl]-piperazin-1-yl}-N,N-diethyl-2-phenyl-acetamide], the IC50 came to 0.37 µM.

`CCN(CC)C(=O)C(c1ccccc1)N1CCN(c2ccc(-c3noc(/C(N)=N/O)n3)cc2F)CC1` (stereo not drawn) [Compound 149, N,N-Diethyl-2-(4-{2-fluoro-4-[5-(N-hydroxycarbamimidoyl)-[1,2,4]oxadiazol-3-yl]-phenyl}-piperazin-1-yl)-2-phenyl-acetamide]: the IC50 was determined as 0.99 µM.

With `CCNC(=O)C(c1ccccc1)N1CCN(c2ccc(-c3nc(C)no3)cc2C#N)CC1` (stereo not drawn) [Compound 261, 2-{4-[2-Cyano-4-(3-methyl-[1,2,4]oxadiazol-5-yl)-phenyl]-piperazin-1-yl}-N-ethyl-2-phenyl-acetamide], the IC50 worked out at 0.41 µM.

For the compound `CCN(CC)C(=O)C(c1ccccc1)N1CCN(c2ccc(-c3nc(C)n(C)n3)cc2F)CC1` (stereo not drawn) [Compound 215, 2-{4-[4-(1,5-Dimethyl-1H-[1,2,4]triazol-3-yl)-2-fluoro-phenyl]-piperazin-1-yl}-N,N-diethyl-2-phenyl-acetamide], the IC50 came out at 1.1 µM.

For `CCNC(=O)C(c1ccccc1)N1CCN(c2ccc(-c3nc(C)no3)cc2F)CC1` (stereo not drawn) [Compound 190, N-Ethyl-2-{4-[2-fluoro-4-(3-methyl-[1,2,4]oxadiazol-5-yl)-phenyl]-piperazin-1-yl}-2-phenyl-acetamide], the IC50 turned out to be 0.33 µM.

On to `CCN(CC)C(=O)C(c1ccccc1)N1CCN(c2ccc(-c3nnc(C(C)C)[nH]3)cc2F)CC1` (stereo not drawn) [Compound 212, N,N-Diethyl-2-{4-[2-fluoro-4-(5-isopropyl-2H-[1,2,4]triazol-3-yl)-phenyl]-piperazin-1-yl}-2-phenyl-acetamide], for which the IC50 was found to be 0.83 µM.

Regarding `CCN(CC)C(=O)C(c1ccccc1)N1CCN(c2ccc(-c3ccccc3C#N)cc2F)CC1` (stereo not drawn) [Compound 253, 2-[4-(2′-Cyano-3-fluoro-biphenyl-4-yl)-piperazin-1-yl]-N,N-diethyl-2-phenyl-acetamide], the IC50 was determined as 8.3 µM.

For the origin of these results see patent US20120015957A1, “PIPERAZINYL DERIVATIVES USEFUL AS MODULATORS OF THE NEUROPEPTIDE Y2 RECEPTOR” (priority 2007, published 2012).
